The target of this assay is Mitogen-activated protein kinase 1 (Homo sapiens) (UniProt P28482). The assay can be described thus: phospho-ERK1/2 protein level change, either direction, late-stage follow-up, counter-screen for KLF5 inhibitor project, DLD1 cells, chemiluminescent western blot, powder samples (AID 588612). The conditions noted are these: DLD-1 cells, p-ERK1/2 western blot, 24 h; at 10 µM.
Chain of Mitogen-activated protein kinase 1 (Homo sapiens) (P28482 whole entry, looked up): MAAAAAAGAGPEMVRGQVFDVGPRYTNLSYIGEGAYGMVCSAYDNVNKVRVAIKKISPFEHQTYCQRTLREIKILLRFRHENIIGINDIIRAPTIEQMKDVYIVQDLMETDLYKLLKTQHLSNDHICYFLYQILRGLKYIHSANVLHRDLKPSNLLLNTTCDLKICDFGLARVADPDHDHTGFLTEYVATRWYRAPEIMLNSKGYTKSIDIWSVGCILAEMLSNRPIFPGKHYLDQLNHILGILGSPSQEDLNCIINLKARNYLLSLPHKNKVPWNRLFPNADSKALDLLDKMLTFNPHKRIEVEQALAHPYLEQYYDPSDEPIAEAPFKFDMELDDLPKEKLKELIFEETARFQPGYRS
With `CN(C(=O)CNC(=O)/C=C/c1cccc(Cl)c1)C1CCS(=O)(=O)C1` (stereo not drawn), the fold change is 9.88.
As for `CN(C(=O)COC(=O)/C=C/c1cccc([N+](=O)[O-])c1)C1CCS(=O)(=O)C1` (stereo not drawn), the figure is 11; as for `CN(C(=O)CNC(=O)/C=C/c1cccc(Cl)c1)C1CCS(=O)(=O)CC1`, 9.41.

(Values after PubChem BioAssay AID588612 (The Scripps Research Institute Molecular Screening Center, 2011).)
